Data as given in patent US10870647B2, “Imidazopyridine derivative, method for preparing same, and pharmaceutical composition containing same as active ingredient for preventing or treating cancer” (DAEGU-GYEONGBUK MEDICAL INNOVATION FOUNDATION, priority 2016, dated 2020).
Like-named read-outs stand apart in the source and are kept apart here.

Key:
Experiment in all cases: Kinase selectivity, scanMAX Kinase assay panel (DiscoverX), % control at 1 uM
Assay type in all cases: binding
[1] = biological target: T1, scanMAX Kinase assay panel (Homo sapiens, UniProt P00519, Q252H); conditions: 1 uM, read-out: Percent Control (%)
T1 construct: purchased DiscoverX
Method in brief: (§1)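 A single concentration of 1 uM, in DMSO, is applied across the kinase panel. Activity against an individual enzyme is assigned where % control is less than 35.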

[2] = biological target: T2, scanMAX Kinase assay panel (Homo sapiens, UniProt P08581); conditions: MET; 1 uM; read-out: Percent Control (%)
T2 construct: purchased DiscoverX
T2 sequence (P08581 25-1390): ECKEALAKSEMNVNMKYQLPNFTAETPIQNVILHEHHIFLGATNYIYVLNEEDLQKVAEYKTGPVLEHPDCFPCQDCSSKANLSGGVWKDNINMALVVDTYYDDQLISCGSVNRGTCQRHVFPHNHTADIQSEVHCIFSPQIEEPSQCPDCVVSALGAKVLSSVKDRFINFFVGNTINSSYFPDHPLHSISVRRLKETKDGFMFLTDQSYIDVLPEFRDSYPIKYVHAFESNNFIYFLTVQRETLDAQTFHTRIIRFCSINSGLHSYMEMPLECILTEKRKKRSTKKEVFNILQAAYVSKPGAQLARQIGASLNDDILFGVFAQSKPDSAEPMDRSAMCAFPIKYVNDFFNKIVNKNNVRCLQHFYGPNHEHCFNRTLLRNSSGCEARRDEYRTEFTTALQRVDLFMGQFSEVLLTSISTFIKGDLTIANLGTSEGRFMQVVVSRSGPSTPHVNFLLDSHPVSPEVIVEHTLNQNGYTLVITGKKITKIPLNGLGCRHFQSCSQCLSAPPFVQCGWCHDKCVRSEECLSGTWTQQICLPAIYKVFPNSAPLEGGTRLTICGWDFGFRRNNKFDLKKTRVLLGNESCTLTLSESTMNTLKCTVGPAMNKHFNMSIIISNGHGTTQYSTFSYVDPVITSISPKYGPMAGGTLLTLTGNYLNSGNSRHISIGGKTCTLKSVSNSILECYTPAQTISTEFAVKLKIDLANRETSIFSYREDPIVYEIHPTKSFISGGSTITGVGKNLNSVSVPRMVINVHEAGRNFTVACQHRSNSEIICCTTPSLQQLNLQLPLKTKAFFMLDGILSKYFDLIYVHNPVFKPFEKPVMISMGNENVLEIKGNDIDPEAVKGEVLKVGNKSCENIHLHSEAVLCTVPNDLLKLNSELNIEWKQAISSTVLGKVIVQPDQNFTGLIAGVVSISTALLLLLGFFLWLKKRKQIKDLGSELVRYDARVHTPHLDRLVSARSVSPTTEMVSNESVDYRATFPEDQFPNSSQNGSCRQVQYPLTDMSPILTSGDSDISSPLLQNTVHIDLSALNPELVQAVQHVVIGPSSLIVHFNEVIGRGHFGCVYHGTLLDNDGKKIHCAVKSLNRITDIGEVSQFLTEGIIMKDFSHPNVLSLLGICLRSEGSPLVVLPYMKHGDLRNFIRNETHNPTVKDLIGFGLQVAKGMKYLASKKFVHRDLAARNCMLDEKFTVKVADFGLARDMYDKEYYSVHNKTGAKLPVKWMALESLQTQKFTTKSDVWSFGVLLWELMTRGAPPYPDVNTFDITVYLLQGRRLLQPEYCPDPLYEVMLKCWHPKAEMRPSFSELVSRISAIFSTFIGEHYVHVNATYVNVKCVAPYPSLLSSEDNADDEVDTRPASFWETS
Method in brief: as §1

[3] = biological target: T3, scanMAX Kinase assay panel (Homo sapiens, UniProt P24941); conditions: CDK2; 1 uM; read-out: Percent Control (%)
T3 construct: purchased DiscoverX
Method in brief: as §1

[4] = biological target: T4, scanMAX Kinase assay panel (Homo sapiens, UniProt P51812); conditions: 1 uM, read-out: Percent Control (%)
T4 construct: purchased DiscoverX
Method in brief: as §1

[5] = biological target: T5, scanMAX Kinase assay panel (Homo sapiens, UniProt P51817); conditions: PRKX; 1 uM; read-out: Percent Control (%)
T5 construct: purchased DiscoverX
T5 sequence (P51817 1-358): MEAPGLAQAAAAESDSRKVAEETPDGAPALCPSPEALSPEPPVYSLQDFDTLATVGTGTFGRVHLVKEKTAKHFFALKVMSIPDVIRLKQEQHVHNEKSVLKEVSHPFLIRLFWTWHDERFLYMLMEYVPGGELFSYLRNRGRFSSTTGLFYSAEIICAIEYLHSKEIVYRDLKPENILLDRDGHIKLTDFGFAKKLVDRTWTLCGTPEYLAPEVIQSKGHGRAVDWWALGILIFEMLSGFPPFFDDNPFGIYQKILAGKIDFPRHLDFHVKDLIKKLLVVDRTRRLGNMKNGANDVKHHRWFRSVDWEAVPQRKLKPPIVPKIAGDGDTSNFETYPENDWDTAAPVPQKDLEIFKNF
Method in brief: as §1

[6] = biological target: T6, scanMAX Kinase assay panel (Homo sapiens, UniProt P80192); conditions: MLK1; 1 uM; read-out: Percent Control (%)
T6 construct: purchased DiscoverX
Method in brief: as §1

[7] = biological target: T7, scanMAX Kinase assay panel (Homo sapiens, UniProt Q04759); conditions: PRKCQ; 1 uM; read-out: Percent Control (%)
T7 construct: purchased DiscoverX
Method in brief: as §1

[8] = biological target: T8, scanMAX Kinase assay panel (Homo sapiens, UniProt Q13464); conditions: ROCK1; 1 uM; read-out: Percent Control (%)
T8 construct: purchased DiscoverX
Method in brief: as §1

[9] = biological target: T9, scanMAX Kinase assay panel (Homo sapiens, UniProt Q15831); conditions: LKB1; 1 uM; read-out: Percent Control (%)
T9 construct: purchased DiscoverX
T9 sequence (Q15831 1-433): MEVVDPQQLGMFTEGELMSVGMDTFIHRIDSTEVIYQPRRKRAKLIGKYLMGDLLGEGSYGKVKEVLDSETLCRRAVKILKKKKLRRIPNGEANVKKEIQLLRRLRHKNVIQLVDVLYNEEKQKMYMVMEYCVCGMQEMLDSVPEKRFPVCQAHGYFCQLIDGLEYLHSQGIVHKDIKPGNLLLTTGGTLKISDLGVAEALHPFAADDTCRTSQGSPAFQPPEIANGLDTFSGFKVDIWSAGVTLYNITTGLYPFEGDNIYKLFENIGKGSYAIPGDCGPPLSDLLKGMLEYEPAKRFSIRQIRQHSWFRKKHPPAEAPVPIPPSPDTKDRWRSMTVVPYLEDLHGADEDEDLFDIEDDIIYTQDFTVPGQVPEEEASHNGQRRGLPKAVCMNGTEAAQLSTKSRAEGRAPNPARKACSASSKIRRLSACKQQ
Method in brief: as §1

[10] = biological target: T10, scanMAX Kinase assay panel (Homo sapiens, UniProt Q16513); conditions: PKN2; 1 uM; read-out: Percent Control (%)
T10 construct: purchased DiscoverX
Method in brief: as §1

[11] = biological target: T11, scanMAX Kinase assay panel (Homo sapiens, UniProt Q86V86); conditions: PIM3; 1 uM; read-out: Percent Control (%)
T11 construct: purchased DiscoverX
Method in brief: as §1

[12] = biological target: T12, scanMAX Kinase assay panel (Homo sapiens, UniProt Q9BYP7); conditions: WNK3; 1 uM; read-out: Percent Control (%)
T12 construct: purchased DiscoverX
T12 sequence (Q9BYP7 whole entry): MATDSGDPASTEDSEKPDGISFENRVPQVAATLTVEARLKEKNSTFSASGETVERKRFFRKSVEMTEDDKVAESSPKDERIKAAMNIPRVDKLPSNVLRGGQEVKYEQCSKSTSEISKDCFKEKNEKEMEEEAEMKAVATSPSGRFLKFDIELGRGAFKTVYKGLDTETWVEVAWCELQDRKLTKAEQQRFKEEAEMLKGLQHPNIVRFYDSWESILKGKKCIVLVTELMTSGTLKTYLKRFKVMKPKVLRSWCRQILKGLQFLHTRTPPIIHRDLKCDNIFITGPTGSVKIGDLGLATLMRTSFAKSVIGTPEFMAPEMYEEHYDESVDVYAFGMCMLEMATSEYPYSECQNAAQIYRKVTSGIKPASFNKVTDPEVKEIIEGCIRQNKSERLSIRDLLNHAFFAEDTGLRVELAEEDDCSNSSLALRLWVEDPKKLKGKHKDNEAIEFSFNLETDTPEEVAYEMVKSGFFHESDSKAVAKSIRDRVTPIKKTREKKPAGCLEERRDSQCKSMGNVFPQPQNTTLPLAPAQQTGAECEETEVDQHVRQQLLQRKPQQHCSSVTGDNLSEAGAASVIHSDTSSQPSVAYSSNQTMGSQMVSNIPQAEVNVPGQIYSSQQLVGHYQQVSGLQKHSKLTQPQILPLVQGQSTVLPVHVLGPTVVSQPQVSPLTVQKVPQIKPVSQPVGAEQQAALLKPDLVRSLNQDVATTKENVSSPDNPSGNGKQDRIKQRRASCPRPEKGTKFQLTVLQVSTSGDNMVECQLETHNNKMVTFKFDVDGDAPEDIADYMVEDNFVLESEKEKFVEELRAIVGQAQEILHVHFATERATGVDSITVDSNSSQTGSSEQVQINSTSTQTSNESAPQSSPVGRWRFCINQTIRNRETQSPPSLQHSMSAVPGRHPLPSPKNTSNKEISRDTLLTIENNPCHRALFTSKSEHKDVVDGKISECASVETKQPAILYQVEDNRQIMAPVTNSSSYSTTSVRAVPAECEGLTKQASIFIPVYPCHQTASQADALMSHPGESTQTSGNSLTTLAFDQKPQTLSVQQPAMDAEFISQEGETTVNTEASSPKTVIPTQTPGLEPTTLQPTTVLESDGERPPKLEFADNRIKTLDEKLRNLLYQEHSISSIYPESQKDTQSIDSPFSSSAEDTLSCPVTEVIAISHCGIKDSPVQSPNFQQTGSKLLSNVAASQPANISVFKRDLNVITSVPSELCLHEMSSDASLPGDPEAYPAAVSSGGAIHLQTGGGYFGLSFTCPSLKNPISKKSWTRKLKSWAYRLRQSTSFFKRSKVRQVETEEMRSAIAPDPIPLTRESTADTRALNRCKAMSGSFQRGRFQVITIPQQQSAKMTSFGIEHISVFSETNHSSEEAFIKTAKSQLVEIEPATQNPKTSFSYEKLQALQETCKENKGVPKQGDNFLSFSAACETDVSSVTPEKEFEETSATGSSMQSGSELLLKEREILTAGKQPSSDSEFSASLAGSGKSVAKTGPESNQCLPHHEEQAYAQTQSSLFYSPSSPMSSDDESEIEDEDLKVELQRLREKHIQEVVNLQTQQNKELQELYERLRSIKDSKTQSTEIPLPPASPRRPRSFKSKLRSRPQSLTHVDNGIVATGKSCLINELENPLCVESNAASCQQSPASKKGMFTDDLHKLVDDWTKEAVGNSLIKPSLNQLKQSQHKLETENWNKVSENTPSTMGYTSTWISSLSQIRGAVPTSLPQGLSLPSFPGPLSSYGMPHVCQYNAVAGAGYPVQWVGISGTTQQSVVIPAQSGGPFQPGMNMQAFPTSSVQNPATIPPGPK
Method in brief: as §1

[13] = biological target: T13, scanMAX Kinase assay panel (Homo sapiens, UniProt Q9H2X6); conditions: HIPK2; 1 uM; read-out: Percent Control (%)
T13 construct: purchased DiscoverX
Method in brief: as §1

[14] = biological target: T14, scanMAX Kinase assay panel (Homo sapiens, UniProt Q9H422); conditions: HIPK3; 1 uM; read-out: Percent Control (%)
T14 construct: purchased DiscoverX
Method in brief: as §1

[15] = biological target: T15, scanMAX Kinase assay panel (Homo sapiens, UniProt Q9UM73, L1196M); conditions: ALK (L1196M); 1 uM; read-out: Percent Control (%)
T15 construct: purchased DiscoverX
Method in brief: as §1

[16] = biological target: T16, scanMAX Kinase assay panel (Homo sapiens, UniProt Q9Y2K2); conditions: QSK; 1 uM; read-out: Percent Control (%)
T16 construct: purchased DiscoverX
T16 sequence (Q9Y2K2 whole entry): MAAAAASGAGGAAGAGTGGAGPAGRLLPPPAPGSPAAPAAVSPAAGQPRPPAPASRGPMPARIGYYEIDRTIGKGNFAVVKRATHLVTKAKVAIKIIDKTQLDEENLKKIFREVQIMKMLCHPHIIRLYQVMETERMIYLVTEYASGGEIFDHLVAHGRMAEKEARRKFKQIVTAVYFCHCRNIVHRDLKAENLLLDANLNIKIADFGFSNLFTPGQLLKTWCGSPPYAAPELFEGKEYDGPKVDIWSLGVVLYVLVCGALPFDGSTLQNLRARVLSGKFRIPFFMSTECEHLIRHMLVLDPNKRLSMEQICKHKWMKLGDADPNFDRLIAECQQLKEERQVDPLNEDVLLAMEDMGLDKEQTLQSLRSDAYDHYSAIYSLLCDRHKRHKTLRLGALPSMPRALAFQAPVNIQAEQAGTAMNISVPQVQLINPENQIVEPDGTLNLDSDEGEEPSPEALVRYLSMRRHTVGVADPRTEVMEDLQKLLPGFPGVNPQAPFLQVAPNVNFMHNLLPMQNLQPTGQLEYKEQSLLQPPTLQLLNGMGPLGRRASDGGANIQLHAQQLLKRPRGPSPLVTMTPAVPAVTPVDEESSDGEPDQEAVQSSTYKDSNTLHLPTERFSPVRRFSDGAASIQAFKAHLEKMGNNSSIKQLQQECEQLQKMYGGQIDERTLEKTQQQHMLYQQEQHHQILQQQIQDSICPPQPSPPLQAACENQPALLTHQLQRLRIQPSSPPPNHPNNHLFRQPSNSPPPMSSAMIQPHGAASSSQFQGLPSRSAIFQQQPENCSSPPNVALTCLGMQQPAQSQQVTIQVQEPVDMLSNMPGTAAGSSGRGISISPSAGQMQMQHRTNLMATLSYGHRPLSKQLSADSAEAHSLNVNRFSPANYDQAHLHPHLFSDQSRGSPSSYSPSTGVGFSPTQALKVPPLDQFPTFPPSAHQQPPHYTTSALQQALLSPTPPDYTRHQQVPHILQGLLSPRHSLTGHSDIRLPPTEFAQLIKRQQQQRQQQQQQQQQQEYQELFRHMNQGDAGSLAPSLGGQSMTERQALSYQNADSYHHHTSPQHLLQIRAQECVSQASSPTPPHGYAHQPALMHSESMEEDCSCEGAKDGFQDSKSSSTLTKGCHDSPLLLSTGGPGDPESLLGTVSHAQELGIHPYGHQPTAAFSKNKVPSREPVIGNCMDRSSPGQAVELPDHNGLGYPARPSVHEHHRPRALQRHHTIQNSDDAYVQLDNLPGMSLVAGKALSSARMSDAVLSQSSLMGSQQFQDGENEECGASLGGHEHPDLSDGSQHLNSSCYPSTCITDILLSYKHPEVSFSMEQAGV
Method in brief: as §1

[17] = biological target: T17, scanMAX Kinase assay panel (Homo sapiens, UniProt Q9Y463); conditions: DYRK1B; 1 uM; read-out: Percent Control (%)
T17 construct: purchased DiscoverX
T17 sequence (Q9Y463 whole entry): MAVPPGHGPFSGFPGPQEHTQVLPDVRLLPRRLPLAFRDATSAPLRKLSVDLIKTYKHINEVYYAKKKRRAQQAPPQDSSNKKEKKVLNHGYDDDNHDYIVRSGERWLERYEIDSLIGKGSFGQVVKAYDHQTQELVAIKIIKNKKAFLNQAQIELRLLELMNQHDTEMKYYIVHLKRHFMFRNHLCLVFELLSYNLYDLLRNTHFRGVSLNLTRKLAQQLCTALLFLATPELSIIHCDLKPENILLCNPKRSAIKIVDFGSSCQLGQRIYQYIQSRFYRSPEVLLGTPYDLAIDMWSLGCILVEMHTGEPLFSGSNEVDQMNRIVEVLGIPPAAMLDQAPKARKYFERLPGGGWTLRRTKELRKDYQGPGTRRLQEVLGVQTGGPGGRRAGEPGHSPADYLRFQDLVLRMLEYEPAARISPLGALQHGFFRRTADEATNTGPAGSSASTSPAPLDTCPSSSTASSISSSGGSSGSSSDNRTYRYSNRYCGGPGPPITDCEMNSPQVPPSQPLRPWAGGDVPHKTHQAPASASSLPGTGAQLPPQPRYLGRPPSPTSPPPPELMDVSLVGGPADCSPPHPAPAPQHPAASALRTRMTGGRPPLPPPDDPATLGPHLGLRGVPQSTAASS
Method in brief: as §1

[18] = biological target: T18, scanMAX Kinase assay panel (Mycobacterium tuberculosis, UniProt P9WI81); conditions: read-out: Percent Control (%)
T18 construct: purchased DiscoverX
Method in brief: as §1

[19] = biological target: T19, scanMAX Kinase assay panel (Plasmodium falciparum, UniProt P62344); conditions: PFCDPK1 (P. falciparum); 1 uM; read-out: Percent Control (%)
T19 construct: purchased DiscoverX
Method in brief: as §1

| SMILES | remaining binding at 1 µM ([1]; ABL1 (Q252H)-nonphosphorylated) [%] | remaining binding at 1 µM ([1]; ABL1 (Q252H)-phosphorylated) [%] | remaining binding at 1 µM [2] [%] | remaining binding at 1 µM [3] [%] | remaining binding at 1 µM ([4]; RSK2 (Kin.Dom.1-N-terminal)) [%] | remaining binding at 1 µM ([4]; RSK2 (Kin.Dom.2-C-terminal)) [%] | remaining binding at 1 µM [5] [%] | remaining binding at 1 µM [6] [%] | remaining binding at 1 µM [7] [%] | remaining binding at 1 µM [8] [%] | remaining binding at 1 µM [9] [%] | remaining binding at 1 µM [10] [%] | remaining binding at 1 µM [11] [%] | remaining binding at 1 µM [12] [%] | remaining binding at 1 µM [13] [%] | remaining binding at 1 µM [14] [%] | remaining binding at 1 µM [15] [%] | remaining binding at 1 µM [16] [%] | remaining binding at 1 µM [17] [%] | remaining binding at 1 µM [18] [%] | other results |
| --- | --- | --- | --- | --- | --- | --- | --- | --- | --- | --- | --- | --- | --- | --- | --- | --- | --- | --- | --- | --- | --- |
| Cc1ccc(NC(=O)C2(C(=O)Nc3ccc(F)cc3)CC2)cc1C#Cc1cnc2c(Nc3cnn(C(C)C)c3)cccn12 [Example 78] | 6 | 91 | 100 | 95 | 99 | 81 | 78 | 100 | 85 | 100 | 100 | 89 | 100 | 100 | 100 | 100 | 100 | 100 | 99 | 97 | remaining binding at 1 µM [19]: 97% |
| Cc1cn(-c2cc(NC(=O)c3ccc(C)c(C#Cc4cnc5c(Nc6cnn(C)c6)cccn45)c3)cc(C(F)(F)F)c2)cn1 [Example 12, 4-methyl-N-(3-(4-methyl-1H-imidazol-1-yl)-5-(trifluoromethyl)phenyl)-3-((8-((1-methyl-1H-pyrazol-4-yl)amino)imidazo[1,2-a]pyridin-3-yl)ethynyl)benzamide] | 3 | 14 | 47 | 85 | 100 | 94 | 97 | 35 | 87 | 100 | 85 | 83 | 90 | 100 | 100 | 84 | 100 | 97 | 100 | 100 | remaining binding at 1 µM [19]: 55% |
| Cc1ccc(C(=O)Nc2ccc(CN3CCN(C)CC3)c(C(F)(F)F)c2)cc1C#Cc1cnc2c(Nc3cnn(C)c3)cccn12 [Example 1, 4-methyl-3-((8-((1-methyl-1H-pyrazol-4-yl)amino)imidazo[1,2-a]pyridin-3-yl)ethynyl)-N-(4-((4-methylpiperazin-1-yl)methyl)-3-(trifluoromethyl)phenyl)benzamide] | 7 | 0 | 18 | 29 | 35 | 93 | 93 | 3 | 53 | 89 | 98 | 83 | 88 | 85 | 61 | 54 | 29 | 89 | 93 | 95 | remaining binding at 1 µM [19]: 1% |
